Source: article PMC6021035, “Insights into biological activity of ureidoamides with primaquine and amino acid moieties” (Journal of Enzyme Inhibition and Medicinal Chemistry, 2018)
Values after ≈ are worked out from the molar mass of the structure shown. Like-named read-outs stand apart in the source and are kept apart here.

Experiments:
[1] = Inhibition of linoleic acid peroxidation (LP), AAPH-initiated; design: tested at 100 µM; conditions: 100 μΜ, 37 °C
Method: To initiate lipid peroxidation, the free radical AAPH was used[10]. The final solution in the UV cuvette consisted of 10 µl sodium linoleate solution (c = 16 mM) and 0.93 ml phosphate buffer pH 7.4 (c = 50 mM). Afterwards, 10 µl of the tested compound solution in DMSO (final concentration 0.1 mM) and 50 µl of AAPH solution (c = 40 mM) were added. The experiment was performed at 37 °C under air. Oxidation of linoleic acid sodium salt was monitored at 234 nm. The assay was repeated at least in triplicate and the standard deviation of absorbance was less than 10% of the mean. Trolox was used under the same experimental conditions as a reference compound.

[2] = system: Candida parapsylosis ATCC 22019; assay: MIC determination (broth micro-dilution); type: cell-based; conditions: ATCC22019
Method: (§1) Before analysis, compounds 5a–f were dissolved in 96% ethanol in a concentration of 2 mg/ml as stock solutions. Inoculums were prepared with fresh cultures of microbial strains, cultured on tryptic-soy agar or Sabouraud 2% (m/v) dextrose agar for 18 h (48–72 h for fungi) at 30 °C with physiological saline containing approximately […]. Inoculum density (0.5 McFarland units) was adjusted with a bio Mériex (France) densitometer. Minimum inhibitory concentration (MIC) was determined by the twofold micro-dilution method in Mu¨ller–Hinton broth for bacterial strains and RPMI 1640 + 2% m/v dextrose for fungi according to the EUCAST recommendations in a sterile 96-well flat-bottom plastic tissue culture plate. MIC was determined using a linear regression curve after incubation of compounds and reading the optical density at 570 nm using an iEMS microplate reader. […] All tests were performed in triplicate and expressed as the mean.

[3] = system: Enterococcus hyrae ATCC 8043; assay: MIC determination (broth micro-dilution); type: cell-based; conditions: ATCC8043
Method: as §1

[4] = system: Candida krusei ATCC 14243; assay: MIC determination (broth micro-dilution); type: cell-based; conditions: Pichia kudriavzevii, ATCC14243
Method: as §1

[5] = system: Staphylococcus aureus ATCC 25923; assay: MIC determination (broth micro-dilution); type: cell-based; conditions: ATCC25923
Method: as §1

[6] = system: Burkholderia caepacia ATCC 25416; assay: MIC determination (broth micro-dilution); type: cell-based; conditions: ATCC25416
Method: as §1

[7] = system: Candida albicans ATCC 90028; assay: MIC determination (broth micro-dilution); type: cell-based; conditions: ATCC90028
Method: as §1

[8] = system: Pseudomonas aeruginosa ATCC 9027; assay: MIC determination (broth micro-dilution); type: cell-based; conditions: ATCC9027
Method: as §1

[9] = system: Escherichia coli ATCC 10536; assay: MIC determination (broth micro-dilution); type: cell-based; conditions: ATCC10536
Method: as §1

[10] = system: Bacillus cereus ATCC 11778; assay: MIC determination (broth micro-dilution); type: cell-based; conditions: ATCC11778
Method: as §1

[11] = system: Pseudomonas aeruginosa ATCC 27853; assay: MIC determination (broth micro-dilution); type: cell-based; conditions: ATCC27853
Method: as §1

Candida kefyr ATCC 2512 = assay: MIC determination (broth micro-dilution); type: cell-based; conditions: Kluyveromyces marxianus, ATCC2512
Method: as §1

[12] = system: Candida tropicalis ATCC 750; assay: MIC determination (broth micro-dilution); type: cell-based; conditions: ATCC750
Method: as §1

[13] = system: Aspergillus niger ATCC 16404; assay: MIC determination (broth micro-dilution); type: cell-based; conditions: ATCC16404
Method: as §1

[14] = system: Enterococcus faecalis ATCC 29212; assay: MIC determination (broth micro-dilution); type: cell-based; conditions: ATCC29212
Method: as §1

[15] = system: Issatchenkia orientalis Kudrjanzev ATCC 6258; assay: MIC determination (broth micro-dilution); type: cell-based; conditions: Pichia kudriavzevii, ATCC6258
Method: as §1

[16] = system: Staphylococcus aureus ATCC 25213; assay: MIC determination (broth micro-dilution); type: cell-based; conditions: ATCC25213
Method: as §1

[17] = system: Kocuria rhizophila ATCC 9341; assay: MIC determination (broth micro-dilution); type: cell-based; conditions: ATCC9341
Method: as §1

[18] = system: Staphylococcus aureus ATCC 6538; assay: MIC determination (broth micro-dilution); type: cell-based; conditions: ATCC6538
Method: as §1

[19] = system: Bacillus subtilis ATCC 6633; assay: MIC determination (broth micro-dilution); type: cell-based; conditions: ATCC6633
Method: as §1

[20] = system: Escherichia coli ATCC 8739; assay: MIC determination (broth micro-dilution); type: cell-based; conditions: ATCC8739
Method: as §1

[21] = system: Candida albicans ATCC 10231; assay: MIC determination (broth micro-dilution); type: cell-based; conditions: ATCC10231
Method: as §1

[22] = In vitro haemolytic activity; type: cell-based; conditions: male, 4% human erythrocytes, read-out: Haemolysis (%); for hemolysis at 1 h, 50 µg/ml: pH 7, 50 μg/ml; for hemolysis at 1 h, 100 µg/ml: pH 7, 100 μg/ml; for hemolysis at 1 h, 200 µg/ml: pH 7, 200 μg/ml
Method: Then, 4% (v/v) of fresh human erythrocyte solution (hErc) was prepared using a PBS pH 7.0 solution. A series of diluted compounds from 200 to 50 µg/ml were prepared in a total volume of 1 ml with hErc solution. […] Absorbance of the supernatant (200 µl) was recorded at 540 nm using an iEMS microplate reader. The 0.1% (v/v) solution of Triton X100 served as a positive control (as total lysis of hErc), and intact hErc served as a negative control. […] All tests were performed in triplicate and the results were expressed as haemolysis percentage (mean ± SD). Percentage of haemolysis was calculated using the following equation: haemolysis %=Asample-Anc/Apc-Anc×100 where Asample was absorbance of the tested compound, Anc was absorbance of the negative control (intact hErc) and Apc was absorbance of the positive control treated with 0.1% TritonX100. In statistical calculations, p values below 0.05 were considered significant throughout the test. For comparison of mean values, one-way ANOVA with Dunnet’s post-test was used.

S. aureus strains = assay: MIC determination, S. aureus strains; type: cell-based, Staphylococcus aureus
Method: as §1

[23] = 4% (v/v) fresh human erythrocyte suspension

COc1cc(NC(C)CCCNC(=O)NC(C(=O)NC(c2ccccc2)c2ccccc2)c2ccc(Cl)cc2)c2ncccc2c1 (centres unmarked) [Compound 5d, 2–(4-chlorophenyl)-N-(diphenylmethyl)-2-[({4-[(6-methoxyquinolin-8-yl)amino]pentyl}carbamoyl)amino]acetamide]
LP inhibition (%) ± SD [1]: 90 ± 4.5%
MIC [2]: > 100 µg/mL
MIC [3]: > 100 µg/mL
MIC [4]: > 100 µg/mL
MIC [5]: 25 µg/mL (≈ 39.3 µM)
MIC [6]: > 100 µg/mL
MIC [7]: > 100 µg/mL
MIC [8]: 65 µg/mL (≈ 102 µM)
MIC [9]: 60 µg/mL (≈ 94.3 µM)
MIC [10]: 50 µg/mL (≈ 78.6 µM)
MIC [11]: 50 µg/mL (≈ 78.6 µM)
MIC (Candida kefyr ATCC 2512): > 100 µg/mL
MIC [12]: > 100 µg/mL
MIC [13]: > 100 µg/mL
MIC [14]: > 100 µg/mL
MIC [15]: > 100 µg/mL
MIC [16]: 12.5 µg/mL (≈ 19.6 µM)
MIC [17]: > 100 µg/mL
MIC [18]: 25 µg/mL (≈ 39.3 µM)
MIC [19]: 65 µg/mL (≈ 102 µM)
MIC [20]: 65 µg/mL (≈ 102 µM)
MIC [21]: > 100 µg/mL
melting point: 180 to 183 °C
hemolysis at 1 h, 50 µg/ml [22, 23]: 2.56 ± 0.05%
hemolysis at 1 h, 100 µg/ml [22, 23]: 2.94 ± 0.04%
hemolysis at 1 h, 200 µg/ml [22, 23]: 3.07 ± 0.05%
MIC (S. aureus strains; Staphylococcus aureus, S. aureus strains, lowest value quoted in text): 6.5 µg/mL (≈ 10.2 µM)
MIC range (S. aureus strains; tested Staphylococcus spp.): 12.5 to 25 µg/mL

COc1ccc(C(=NNC(=O)C(NC(=O)NCCCC(C)Nc2cc(OC)cc3cccnc23)c2ccc(Cl)cc2)c2ccccc2)cc1 (centres unmarked) [Compound 5f, 3-[(4-chlorophenyl)({N'-[(4-methoxyphenyl)(phenyl)methylidene]hydrazinecarbonyl})methyl]-1-{4-[(6-methoxyquinolin-8-yl)amino]pentyl}urea]
LP inhibition (%) ± SD [1]: 90 ± 3.6%
MIC [2]: > 100 µg/mL
MIC [3]: > 100 µg/mL
MIC [4]: > 100 µg/mL
MIC [5]: > 100 µg/mL
MIC [6]: > 100 µg/mL
MIC [7]: > 100 µg/mL
MIC [8]: > 100 µg/mL
MIC [9]: > 100 µg/mL
MIC [10]: > 100 µg/mL
MIC [11]: > 100 µg/mL
MIC (Candida kefyr ATCC 2512): > 100 µg/mL
MIC [12]: > 100 µg/mL
MIC [13]: > 100 µg/mL
MIC [14]: > 100 µg/mL
MIC [15]: > 100 µg/mL
MIC [16]: > 100 µg/mL
MIC [17]: > 100 µg/mL
MIC [18]: > 100 µg/mL
MIC [19]: > 100 µg/mL
MIC [20]: > 100 µg/mL
MIC [21]: > 100 µg/mL
hemolysis at 1 h, 50 µg/ml [22, 23]: 3.32 ± 0.05%
hemolysis at 1 h, 100 µg/ml [22, 23]: 3.66 ± 0.05%
hemolysis at 1 h, 200 µg/ml [22, 23]: 4.03 ± 0.09%

COc1cc(NC(C)CCCN)c2ncccc2c1 (centres unmarked) [PQ, 8-[(4-amino-1-methylbutyl)amino]-6-methoxyquinoline, reference compound]
MIC [2]: 25 µg/mL (≈ 96.4 µM)
MIC [3]: > 100 µg/mL
MIC [4]: > 100 µg/mL
MIC [5]: 45 µg/mL (≈ 174 µM)
MIC [6]: 80 µg/mL (≈ 308 µM)
MIC [7]: > 100 µg/mL
MIC [8]: 70 µg/mL (≈ 270 µM)
MIC [9]: 65 µg/mL (≈ 251 µM)
MIC [10]: 70 µg/mL (≈ 270 µM)
MIC [11]: 65 µg/mL (≈ 251 µM)
MIC (Candida kefyr ATCC 2512): 40 µg/mL (≈ 154 µM)
MIC [12]: > 100 µg/mL
MIC [13]: > 100 µg/mL
MIC [14]: > 100 µg/mL
MIC [15]: > 100 µg/mL
MIC [16]: 70 µg/mL (≈ 270 µM)
MIC [17]: 50 µg/mL (≈ 193 µM)
MIC [18]: 50 µg/mL (≈ 193 µM)
MIC [19]: 80 µg/mL (≈ 308 µM)
MIC [20]: 40 µg/mL (≈ 154 µM)
MIC [21]: 90 µg/mL (≈ 347 µM)
hemolysis at 1 h, 50 µg/ml [22]: 2.08 ± 0.05%
hemolysis at 1 h, 100 µg/ml [22]: 2.53 ± 0.04%
hemolysis at 1 h, 200 µg/ml [22]: 3.12 ± 0.07%
